Assay results as given in PMC11444200, “In Vitro Evaluation of Antipseudomonal Activity and Safety Profile of Peptidomimetic Furin Inhibitors” (Biomedicines, 2024).
Like-named read-outs stand apart in the source and are kept apart here.

Key:
Pseudomonas aeruginosa = test: viability (CCK-8) of MDCK cells challenged with Pseudomonas aeruginosa; type: cell-based; conditions: P. aeruginosa 10^6 CFU/mL, 5 h, inhibitor 2 h prior and during, tested 0.5-100 µM
Experimental: MDCK NBL-2 cells were obtained from Cytion (formerly: CLS Cell Lines Service, Eppenheim, Germany). Cells were grown in T-75 cell culture flasks, using Dulbecco’s Modified Eagle’s Medium (DMEM, Capricorn Scientific, Ebsdorfergrund, Germany) supplemented with 5% foetal bovine serum (FBS, Capricorn) and antibiotic–antimycotic solution (penicillin, streptomycin, amphotericin B; Merck, Darmstadt, Germany). The cells were subcultured and seeded in wells of 96-well microtiter plates one day prior to the experiments. After 24 h, near 100% confluence was recorded in the wells. The growth and incubation of MDCK cells were carried out in a humidified incubator at 37 °C and in the presence of 5% CO2. […] Three times single colonies from ten different blood agar plates were dissolved in 5 mL of distilled water, and colony-forming units (CFU) were counted after their serial dilution and overnight incubation on non-selective blood agar at 37 °C. […] The count of Pseudomonas aeruginosa from inoculating vials was also assessed and was in good accordance with our count prediction. […] Following the addition of the final reagent (100 µL fresh Williams’ Medium E) and a 2 h incubation period, the absorbance was measured at 450 nm using a SpectraMax iD3 (Molecular Devices, San José, CA, USA).

[1] = system: α1-acid glycoprotein (AGP); test: fluorescence quenching of α1-acid glycoprotein; type: binding; conditions: AGP 2 μM, ligand 0.25-2.5 μM, PBS pH 7.4, λex 285 nm
Experimental: Human serum albumin (HSA) (product code: A1653) and α1-acid glycoprotein (AGP) (product code: G9885) were purchased from Merck (Darmstadt, Germany) and used as received. Fluorescence emission spectra were recorded using a Hitachi F-4500 fluorometer (Tokyo, Japan), while absorption spectra were collected by employing a Hitachi U-3900 UV–Vis spectrophotometer (Tokyo, Japan). Before the evaluation of fluorescence data, the inner-filter effects of MI-1851 and MI-2415 were corrected based on the following equation [23, 24]:(1) Icor=Iobs×e^(Aex+Aem)/2 where Icor and Iobs are the corrected and observed emission intensities, respectively; and Aex and Aem are the absorbance of the MI compounds tested at the excitation and emission wavelengths used, respectively.
To examine the potential interaction of inhibitor MI-2415 with HSA, increasing levels of the ligand (final concentrations: 0, 1, 2, 3, 4, 7, and 10 μM) were added to a standard amount of the protein (2 μM) in PBS (pH 7.4), and then the emission spectra were recorded (λex = 295 nm, λem = 340 nm). Furthermore, the quenching effects of inhibitors MI-1851 and MI-2415 (both 0, 0.25, 0.5, 1, 1.5, 2, and 2.5 μM) were also tested on the emission signal of AGP (2 μM) in PBS (λex = 285 nm, λem = 337 nm).

IPEC-J2 cells = test: CCK-8 cytotoxicity assay in IPEC-J2 cells; type: cell-based, porcine; conditions: 50 µM or 100 µM, 24 h
Experimental: The cell line used for the experiments was the IPEC-J2 from the jejunum of porcine. The IPEC-J2 epithelial cell line was a kind gift from Dr. Jody Gookin (Department of Clinical Sciences, College of Veterinary Medicine, North Carolina State University, Raleigh, NC, USA). The cell monolayers were maintained in 75 cm^2 cell culture flasks with filtered caps (Orange Scientific, Braine-l’Alleud, Belgium) at 37 °C in a humidified atmosphere containing 5% CO2. […]
The possible cytotoxic effects of the inhibitors MI-1851 and MI-2415 (structures provided in Figure 1) in different concentrations on IPEC-J2 and those of inhibitor MI-2415 on PHHs were assessed for 24 h by performing the CCK-8 assay (Dojindo Molecular Technologies, Rockville, MD, USA). […] Following three times washing of the wells with PBS, 10 µL CCK-8 reagent mixed with 100 µL fresh Williams’ Medium E was added and the absorbance values were measured at 450 nm using the SpectraMax iD3 microplate reader (Molecular Devices, San José, CA, USA) after 2 h incubation. […]

furin = conditions: read-out: Ki for furin; cited from earlier work
mice = conditions: cited from earlier work; for tolerated i.p. dose: mice

SMILES	concentration with antipseudomonal effect (preserved MDCK cell viability) (Pseudomonas aeruginosa) [µM]	effect on fluorescence signal of AGP at 337 nm [1]	cell viability of IPEC-J2 cells (IPEC-J2 cells)	Ki (furin) [pM]	tolerated i.p. dose (mice; no higher dose was tested) [mg/kg]	tolerated i.p. dose (mice) [mg/kg]	mortality (mice; mouse, in vivo, ip, 20 mg/kg)
CC(C)(C)[C@H](NC(=O)[C@H](CCONC(=N)N)NC(=O)Cc1ccc(CNC(=N)N)cc1)C(=O)N[C@@H](CCONC(=N)N)C(=O)NCc1ccc(C(=N)N)cc1 [MI-1851]	0.5	did not induce relevant changes in the fluorescence signal of AGP	did not show a significant decrease in cell viability	10.1	15	–	–
CC(C)(C)[C@H](NC(=O)[C@H](CCONC(=N)N)NC(=O)Cc1ccc(CNC(=N)N)cc1)C(=O)N[C@@H](CCONC(=N)N)C(=O)NCc1ccc2c(c1)CN=C2N [MI-2415]	≥ 25	did not induce relevant changes in the fluorescence signal of AGP	did not show a significant decrease in cell viability	7.1	–	15	one of four mice died
